Reference: patent US20130005811A1, “ANTIMICROBIAL TREATMENT FOR SEEDS AND SPROUTS” (priority 2010, published 2013)
Several values for one entry are separate records, joined by “and”; a condition that tells them apart may be missing. Equal entries are not always repeated. Marks after values point to notes of the source that are not given here.

Columns and labels:
[1] = tested on: alfalfa seeds; assay: Determination of alfalfa seed germination percentage; type: in vivo; conditions: for Germination rate, average: average of 3 replicas
Experimental: Treated and non-treated seeds (5 g or number of seeds counted per replicate) were placed on the surface of a plastic tray. Three plastic trays were stacked vertically and top tray was filled with 100 ml of sterile deionized water or tap water which fed to the lower trays to maintain uniform moisture content for the seeds. The seeds were incubated at 22° C. for 72 hr. Each evaluation was based on three replicates of 200-400 seeds each. A seed was considered to have germinated if the seed coat was broken and a visible sprout was extending at least 8 mm from the original seed. Swollen seeds or ruptured seeds with sprout tissue still inside were not counted as germinated, because such seeds rarely sprouted completely after an additional 24 hr of incubation.

[2] = tested on: E. coli O157:H7; assay: Inactivation of E. coli O157:H7 on alfalfa seeds inoculated with 10^8 CFU/g; type: cell-based, Escherichia coli O157:H7
Experimental: Five isolates of Escherichia coli O157:H7, including strain 932 (human isolate), E009 (beef isolate), E0018 (cattle isolate), E0122 (cattle isolate), E0139 (deer jerky isolate); and five isolates of Salmonella typhimurium DT104, including strain H2662 (cattle isolate), 11942A (cattle isolate), 13068A (cattle isolate), 152N17-1 (dairy isolate) and H3279 (human isolate) were used. Nalidixic acid-resistant (50 μg/ml) E. coli O157:H7 were used to facilitate enumeration. Each E. coli O157:H7 and Salmonella strain was grown in tryptic soy broth (TSB, Beckon Dickinson, Sparks, Md.) at 37° C. for 18 hr. Approximately equal cell numbers of each of the five strains were combined and used as a 5-strain mixture with cell numbers being adjusted by spectrophotometric (Spectronic Instruments, Rochester, N.Y.) determination as described in Zhao et al., (2009) J. Food Prot. 72: 928-936, incorporated herein by reference in its entirety. Bacterial cell numbers were confirmed by plating 0.1 ml of serial dilutions (1:10) in 0.1% peptone on tryptic soy agar (TSA, Beckon Dickinson) and Sorbitol MacConkey agar (SMA, Oxoid, Hampshire, UK) for E. coli O157:H7, and TSA and XLD agar (Beckon Dickinson) for Salmonella and incubating all plates at 37° C. for 24 hr, after which colonies were counted.
Levulinic acid (0.5%) and 0.05% sodium dodecyl sulfate (SDS) obtained from Sigma-Aldrich (St. Louis, Mo.) were tested in combination at 21±2° C. for their antimicrobial activity to E. coli O157:H7 and S. typhimurium on alfalfa seeds as a wash treatment. Calcium hypochlorite (Arch Chemicals, Smyrna, Ga.) at 20,000 μg/ml (ppm) was used as the positive control, and deionized water was used as the negative control.
Before each trial, 25 ml of sterile tap water and 25 g of alfalfa seeds were added to a WHIRL-PAK® bag (Nasco, Fort Atkinson, Wis.) and pummeled in a stomacher blender at 150 rpm for 1 min. Duplicate 0.1 ml portions of the contents were plated on SMA, XLD, and TSA plates to detect E. coli O157:H7 and Salmonella, and enumerate aerobic bacteria counts according to the protocols described below. Only E. coli O157:H7-negative and Salmonella-negative alfalfa seeds were used. Dry seeds (50 g) were individually placed in a sterilized glass beaker (1 L) and 5 ml of a mixture of E. coli O157:H7 or S. typhimurium DT 104 (high inocula at 10^8-10^9 CFU/ml and low inocula at 10^3-10^4 CFU/ml) was inoculated on the surface of the seeds in each glass beaker under a laminar flow hood. A sterile plastic spoon was used to mix for 2 min the seeds with bacterial suspension. The glass beakers were held in a laminar flow hood for 1 hr, 4 hr, 24 hr, 48 hr, and 72 hr with intermittent mixing by plastic spoon before use for chemical treatment.
Inactivation of E. coli O157:H7 and Salmonella on Alfalfa Seeds: Inoculated, dried alfalfa seeds (50 g samples) were placed in a 1000 ml glass beaker containing 200 ml of treatment solution and agitated by a magnetic stir bar at 150 ppm at 21° C. for 0, 1, 2, 5, 10, 20, 30, and 60 min. Following treatment, 25 g of seeds was placed in a stomacher bag containing 25 ml 0.1M phosphate buffer, pH 7.2 (PBS) for levulinic acid plus SDS-treated seeds or neutralizing buffer (50×) for calcium hypochlorite-treated seeds and pummeled for 1 min. at 150 rpm in a stomacher blender (Seward, Ltd., Worthing, England). The suspension was serially (1:10) diluted in 0.1% peptone water and 0.1 ml of each dilution was surface-plated in duplicate onto TSA and Sorbitol MacConkey agar containing 50 μg nalidixic acid/ml (TSA-NA and SMA-NA) for E. coli O157:H7, and on TSA and XLD containing ampicillin (32 μg/ml), tetracycline (16 μg/ml) and streptomycin (64 μg/ml) (TSA+ and XLD+) for S. typhimurium DT 104. All plates were incubated at 37° C. for 48 hr.

[3] = treatment for 1 h at 21° C., Ca(OCl)2 pH 11.4

SMILES: [Ca+2].[O-]Cl.[O-]Cl [20,000 ppm, Ca(OCl)2, pH 11.4, Calcium hypochlorite]
- Effect on alfalfa seed germination ([1]; 1 hr at 21° C., compared to tap water): substantially reduced germination percentage
- Germination rate, average [1, 3]: 47%
- Germination rate, average ([1]; treatment for 1 h at 21° C., listed as 20,000 ppm calcium hypochlorite): 47.3%
- Germination rate, average ([1]; treatment for 1 h at 21° C., row): 47%
- Germination Ratio (Percentage), per replica [1, 3]: 62% and 34% and 46%
- Germination Ratio (germinated/total seeds), per replica [1, 3]: 124/200 and 68/200 and 92/200
- E. coli O157:H7 counts on seeds ([2]; dried for 4 hr, treated for 0 min (actual time 0 delayed by 20 to 30 seconds)): +^b (below the minimum detection level by direct plating (<0.7 log CFU/ml), but positive by enrichment culture)
- E. coli O157:H7 counts on seeds ([2]; dried for 4 hr, treated for 1 min): + (below the minimum detection level by direct plating (<0.7 log CFU/ml), but positive by enrichment culture)
- E. coli O157:H7 counts on seeds ([2]; dried for 4 hr, treated for 2 min): −^c
- E. coli O157:H7 counts on seeds ([2]; dried for 4 hr, treated for 5 min): + (below the minimum detection level by direct plating (<0.7 log CFU/ml), but positive by enrichment culture)
- E. coli O157:H7 counts on seeds ([2]; dried for 4 hr, treated for 10 min): 1.7 CFU/g
- E. coli O157:H7 counts on seeds ([2]; dried for 4 hr, treated for 20 min): 2.0 CFU/g
- E. coli O157:H7 counts on seeds ([2]; dried for 4 hr, treated for 30 min): 1.7 CFU/g
- E. coli O157:H7 counts on seeds ([2]; dried for 4 hr, treated for 60 min): + (below the minimum detection level by direct plating (<0.7 log CFU/ml), but positive by enrichment culture)
- E. coli O157:H7 counts on seeds ([2]; dried for 24 hr, treated for 0 min): + (below the minimum detection level by direct plating (<0.7 log CFU/ml), but positive by enrichment culture)
- E. coli O157:H7 counts on seeds ([2]; dried for 24 hr, treated for 1 min): −
- E. coli O157:H7 counts on seeds ([2]; dried for 24 hr, treated for 2 min): −
- E. coli O157:H7 counts on seeds ([2]; dried for 24 hr, treated for 5 min): −
- E. coli O157:H7 counts on seeds ([2]; dried for 24 hr, treated for 10 min): + (below the minimum detection level by direct plating (<0.7 log CFU/ml), but positive by enrichment culture)
- E. coli O157:H7 counts on seeds ([2]; dried for 24 hr, treated for 20 min): −
- E. coli O157:H7 counts on seeds ([2]; dried for 24 hr, treated for 30 min): −
- E. coli O157:H7 counts on seeds ([2]; dried for 24 hr, treated for 60 min): + (below the minimum detection level by direct plating (<0.7 log CFU/ml), but positive by enrichment culture)
- E. coli O157:H7 counts on seeds ([2]; dried for 48 hr, treated for 0 min): + (below the minimum detection level by direct plating (<0.7 log CFU/ml), but positive by enrichment culture)
- E. coli O157:H7 counts on seeds ([2]; dried for 48 hr, treated for 1 min): −
- E. coli O157:H7 counts on seeds ([2]; dried for 48 hr, treated for 2 min): + (below the minimum detection level by direct plating (<0.7 log CFU/ml), but positive by enrichment culture)
- E. coli O157:H7 counts on seeds ([2]; dried for 48 hr, treated for 5 min): −
- E. coli O157:H7 counts on seeds ([2]; dried for 48 hr, treated for 10 min): −
- E. coli O157:H7 counts on seeds ([2]; dried for 48 hr, treated for 20 min): −
- E. coli O157:H7 counts on seeds ([2]; dried for 48 hr, treated for 30 min): −
- E. coli O157:H7 counts on seeds ([2]; dried for 48 hr, treated for 60 min): −
- E. coli O157:H7 counts on seeds ([2]; dried for 72 hr, treated for 0 min): + (below the minimum detection level by direct plating (<0.7 log CFU/ml), but positive by enrichment culture)
- E. coli O157:H7 counts on seeds ([2]; dried for 72 hr, treated for 1 min): + (below the minimum detection level by direct plating (<0.7 log CFU/ml), but positive by enrichment culture)
- E. coli O157:H7 counts on seeds ([2]; dried for 72 hr, treated for 2 min): + (below the minimum detection level by direct plating (<0.7 log CFU/ml), but positive by enrichment culture)
- E. coli O157:H7 counts on seeds ([2]; dried for 72 hr, treated for 5 min): −
- E. coli O157:H7 counts on seeds ([2]; dried for 72 hr, treated for 10 min): + (below the minimum detection level by direct plating (<0.7 log CFU/ml), but positive by enrichment culture)
- E. coli O157:H7 counts on seeds ([2]; dried for 72 hr, treated for 20 min): + (below the minimum detection level by direct plating (<0.7 log CFU/ml), but positive by enrichment culture)
- E. coli O157:H7 counts on seeds ([2]; dried for 72 hr, treated for 30 min): −
- E. coli O157:H7 counts on seeds ([2]; dried for 72 hr, treated for 60 min): −
- Reduction of E. coli O157:H7 population ([2]; seeds dried for 4 hr, treated for up to 60 min): greater than 6 log CFU/g
- E. coli O157:H7 detection after treatment ([2]; seeds dried for 24 hr, treated for 5 min): only detectable on seeds by selective enrichment culture
